Molecules are shown by their SMILES. Structures can show the parent of a compound that is named as a salt.

Series [1] concerns Huh-7. In words: XTT antiproliferative assay, Huh-7. Type of series: cell-based. The conditions noted are these: Homo sapiens, 72 h, mean ± SD. How it is done:
(§1) All the synthesized 4-anilinoquinolinylchalcone derivatives were evaluated in vitro against two cancer cells (Huh-7 and MDA-MB-231) and a non-cancer normal fibroblast lung cell line (MRC-5) using an XTT (sodium 3′-[1-(phenylamino-carbonyl)-3,4-tetrazolium}-bis(4-methoxy-6-nitro)benzene sulfonic acid hydrate) assay. The concentration that inhibited the growth of 50% of cells (IC50) was determined from the linear portion of the curve by calculating the concentration of the tested agent that reduced absorbance in treated cells, compared to control cells, by 50%. The IC50 results of these 4-anilinoquinolinylchalcone derivatives are summarized (Table 1). […] Thus, 4a was selected as a lead compound for further mechanism studies.
(§2) Cancer cells (Huh-7, MDA-MB-231) and normal lung cells (MRC-5) were purchased from Bioresources Collection and Research Center, Taiwan. Cells were maintained in the same standard medium, grown as a monolayer in DMEM (Gibco, Miami, FL, USA), and supplemented with 10% fetal bovine serum (FBS) and antibiotics, i.e., 100 IU/mL penicillin, 0.1 mg/mL streptomycin and 0.25 μg/mL amphotericin. The culture was maintained at 37 °C with 5% CO2 in a humidified atmosphere. Cells (5 × 10^3 cells/well) were treated with tested compounds for 72 h in the medium containing 10% FBS. Cell viability was quantitated with the use of sodium 3′-[1-(phenylamino-carbonyl)-3,4-tetrazolium}-bis(4-methoxy-6-nitro)benzene sulfonic acid hydrate (XTT) colorimetric assay (Biological Industries, Beit-Haemek, Israel). XTT labeling reagent (1 mg/mL) was mixed with electron-coupling reagent, following the manufacturer’s instructions, and 50 μL of the mixture was added directly to the cells. The plates were further incubated at 37 °C for 4 h. Color was measured spectrophotometrically in a microtiter plate reader at 492 nm and used as a relative measurement of viable cell numbers. After drug treatment, the viable cell number was compared to the solvent and untreated control cell number. This information was used to determine the percent of control growth as (Abtreated/Abcontrol) × 100, where Ab represents the mean absorbance (n = 3). The concentration that killed 50% of cells (IC50) was determined from the linear portion of the curve by calculating the concentration of the agent that reduced the absorbance in treated cells, compared to control cells, by 50%.
On the technique in general: Formazan colour is commonly taken as a measure of viable cells.

For series [2], the system named is MDA-MB-231. In words: XTT antiproliferative assay, MDA-MB-231. To be noted: Homo sapiens, 72 h, mean ± SD. Type of series: cell-based. How it is done: as §1, §2
The test system of series [3] is MRC-5. In words: XTT antiproliferative assay, normal lung cells MRC-5. Type of series: cell-based. The conditions noted are these: Homo sapiens, MRC5, 72 h, mean ± SD. How it is done: as §1, §2

As usually defined, the melting point is the temperature, or range, at which the solid turns liquid. The molecule `O=C(/C=C/c1cc(Nc2ccc(OCc3ccccc3)cc2)c2ccccc2n1)c1ccc(F)cc1` (as salt: salt) [Compound 5a, (E)-3-{4-{[4-(Benzyloxy)phenyl]amino}quinolin-2-yl}-1-(4-fluorophenyl)prop-2-en-1-one] gave a melting point of 162 to 163 °C.

By IC50 is commonly meant the midpoint of a concentration-inhibition curve. Read a high IC50 as lower potency. Regarding `O=C(/C=C/c1cc(Nc2ccc(OCc3cccc(F)c3)cc2)c2ccccc2n1)c1ccc(F)cc1` [Compound 5e, (E)-3-{4-{{4-[(3-Fluorobenzyl)oxy]phenyl}amino}quinolin-2-yl}-1-(4-fluorophenyl)prop-2-en-1-one], the half-maximal inhibitory concentration (IC50) in series [1] is 1270 ± 60 nM; in series [2], 1820 ± 280 nM; in series [3], above 20000 nM.

For the molecule `O=C(/C=C/c1cc(Nc2ccc(OCc3ccccc3Cl)cc2)c2ccccc2n1)c1ccc(F)cc1` (as salt: salt) [Compound 5b, (E)-3-{4-{{4-[(2-Chlorobenzyl)oxy]phenyl}amino}quinolin-2-yl}-1-(4-fluorophenyl) prop-2-en-1-one], the melting point was 192 to 193 °C.

As for `COc1ccc(C(=O)/C=C/c2cc(Nc3ccc(OCc4ccccc4Cl)cc3)c3ccccc3n2)cc1` (as salt: salt) [Compound 4b, (E)-3-{4-{{4-[(2-Chlorobenzyl)oxy]phenyl}amino}quinolin-2-yl}-1-(4-methoxy - phenyl) prop-2-en-1-one], the melting point lay in the range of 160 to 161 °C.

`COc1ccc(C(=O)/C=C/c2cc(Nc3ccc(OCc4ccccc4)cc3)c3ccccc3n2)cc1` (as salt: salt) [Compound 4a, (E)-3-{4-{[4-(Benzyloxy)phenyl]amino}quinolin-2-yl}-1-(4-methoxyphenyl)prop-2-en-1-one] had a melting point of 200 to 201 °C.

Take `O=C(/C=C/c1cc(Nc2ccc(OCc3cccc(Cl)c3)cc2)c2ccccc2n1)c1ccc(F)cc1` [Compound 5d, (E)-3-{4-{{4-[(3-Chlorobenzyl)oxy]phenyl}amino}quinolin-2-yl}-1-(4-fluorophenyl) prop-2-en-1-one]: the results for the IC50 in series [1], in series [2] and in series [3] were 1280 ± 210 nM, 1760 ± 130 nM and above 20000 nM, respectively.

Take `O=C(/C=C/c1cc(Nc2ccc(OCc3ccccc3Cl)cc2)c2ccccc2n1)c1ccc(F)cc1` [Compound 5b, (E)-3-{4-{{4-[(2-Chlorobenzyl)oxy]phenyl}amino}quinolin-2-yl}-1-(4-fluorophenyl) prop-2-en-1-one]: the figures for the IC50 in series [1], in series [2] and in series [3] were 1240 ± 300 nM, 1530 ± 210 nM and above 20000 nM, respectively.

Regarding `COc1ccc(C(=O)/C=C/c2cc(Nc3ccc(OCc4cccc(F)c4)cc3)c3ccccc3n2)cc1` [Compound 4e, (E)-3-{4-{{4-[(3-Fluorobenzyl)oxy]phenyl}amino}quinolin-2-yl}-1-(4-methoxy-phenyl) prop-2-en-1-one], the IC50 in series [1] was 1450 ± 280 nM; in series [2] it was 540 ± 110 nM; in series [3] it was above 20000 nM.

For the molecule `COc1ccc(C(=O)/C=C/c2cc(Nc3ccc(OCc4ccccc4Cl)cc3)c3ccccc3n2)cc1` [Compound 4b, (E)-3-{4-{{4-[(2-Chlorobenzyl)oxy]phenyl}amino}quinolin-2-yl}-1-(4-methoxy - phenyl) prop-2-en-1-one], the IC50 was 1830 ± 220 nM in series [1], 1590 ± 150 nM in series [2] and above 20000 nM in series [3].

Consider `O=C(/C=C/c1cc(Nc2ccc(OCc3ccccc3F)cc2)c2ccccc2n1)c1ccc(F)cc1` (as salt: salt) [Compound 5c, (E)-3-{4-{{4-[(2-Fluorobenzyl)oxy]phenyl}amino}quinolin-2-yl}-1-(4-fluorophenyl) prop-2-en-1-one], for which the melting point was 207 to 208 °C.

For `COc1ccc(C(=O)/C=C/c2cc(Nc3ccc(OCc4cccc(Cl)c4)cc3)c3ccccc3n2)cc1` [Compound 4d, (E)-3-{4-{{4-[(3-Chlorobenzyl)oxy]phenyl}amino}quinolin-2-yl}-1-(4-methoxy-phenyl) prop-2-en-1-one], the values for the IC50 in series [1], in series [2] and in series [3] were 690 ± 40 nM, 180 ± 60 nM and above 20000 nM, respectively.

Turning to `COc1ccc(C(=O)/C=C/c2cc(Nc3ccc(OCc4ccc(Cl)cc4)cc3)c3ccccc3n2)cc1` [Compound 4g, (E )-3-{4-{{4-[(4-Chlorobenzyl)oxy]phenyl}amino}quinolin-2-yl}-1-(4-methoxy - phenyl)prop-2-en-1-one], the figures for the IC50 in series [1], in series [2] and in series [3] were 1310 ± 560 nM, 1710 ± 350 nM and above 20000 nM, respectively.

On to `O=C(/C=C/c1cc(Nc2ccc(OCc3ccccc3)cc2)c2ccccc2n1)c1ccc(F)cc1` [Compound 5a, (E)-3-{4-{[4-(Benzyloxy)phenyl]amino}quinolin-2-yl}-1-(4-fluorophenyl)prop-2-en-1-one], for which the 50% inhibitory concentration (IC50) in series [1] was 1240 ± 90 nM; in series [2], 1650 ± 770 nM; in series [3] it was above 20000 nM.

As to `O=C(/C=C/c1cc(Nc2ccc(OCc3ccccc3F)cc2)c2ccccc2n1)c1ccc(F)cc1` [Compound 5c, (E)-3-{4-{{4-[(2-Fluorobenzyl)oxy]phenyl}amino}quinolin-2-yl}-1-(4-fluorophenyl) prop-2-en-1-one], the IC50 in series [1] was 1250 ± 70 nM; in series [2], 1420 ± 700 nM; in series [3], above 20000 nM.

As to `O=C(/C=C/c1cc(Nc2ccc(OCc3ccc(F)cc3)cc2)c2ccccc2n1)c1ccc(F)cc1` [Compound 5h, (E)-3-{4-{{4-[(4-Fluorobenzyl)oxy]phenyl}amino}quinolin-2-yl}-1-(4-fluorophenyl)prop-2-en-1-one], the IC50 in series [1] was 1290 ± 280 nM; in series [2], 1680 ± 210 nM; in series [3] it was above 20000 nM.

In the case of `COc1ccc(C(=O)/C=C/c2cc(Nc3ccc(OCc4cccc(OC)c4)cc3)c3ccccc3n2)cc1` [Compound 4f, (E)-3-{4-{{4-[(3-Methoxybenzyl)oxy]phenyl}amino}quinolin-2-yl}-1-(4-methoxy - phenyl)prop-2-en-1-one], the IC50 was 1410 ± 40 nM in series [1], 1940 ± 520 nM in series [2] and above 20000 nM in series [3].

Take `COc1cccc(COc2ccc(Nc3cc(/C=C/C(=O)c4ccc(F)cc4)nc4ccccc34)cc2)c1` [Compound 5f, (E)-1-(4-Fluorophenyl)-3-{4-{{4-[(3-methoxybenzyl)oxy]phenyl}amino}quinolin-2-yl}prop-2-en-1-one]: the IC50 in series [1] is 1340 ± 350 nM; in series [2], 2030 ± 140 nM; in series [3] it was above 20000 nM.

As for `COc1ccc(C(=O)/C=C/c2cc(Nc3ccc(OCc4ccc(F)cc4)cc3)c3ccccc3n2)cc1` [Compound 4h, (E)-3-{4-{ {4-[ (4-Fluorobenzyl)oxy]phenyl}amino}quinolin-2-yl}-1-(4-methoxy - phenyl)prop-2-en-1-one], the IC50 is 1370 ± 280 nM in series [1], 1690 ± 210 nM in series [2] and above 20000 nM in series [3].

On to `O=C(/C=C/c1cc(Nc2ccc(OCc3ccc(Cl)cc3)cc2)c2ccccc2n1)c1ccc(F)cc1` [Compound 5g, (E)-3-{4-{{4-[(4-Chlorobenzyl)oxy]phenyl}amino}quinolin-2-yl}-1-(4-fluorophenyl)prop-2-en-1-one], for which the IC50 in series [1] was 1300 ± 140 nM; in series [2] it was 1500 ± 770 nM; in series [3], above 20000 nM.

With `COc1ccc(C(=O)/C=C/c2cc(Nc3ccc(OCc4ccccc4F)cc3)c3ccccc3n2)cc1` [Compound 4c], the half-maximal inhibitory concentration (IC50) in series [1] was 810 ± 60 nM; in series [2], 1040 ± 40 nM; in series [3], above 20000 nM.
